Measured values as given in patent US10358458B2, “4′-vinyl substituted nucleoside derivatives as inhibitors of respiratory syncytial virus RNA replication” (Riboscience LLC, priority 2014, dated 2019).

Target: T1, RSV polymerase (Human respiratory syncytial virus A, UniProt P28887)
T1 construct: RSV polymerase was obtained from RSV infected A549 cells; endogenous in cells; host or cells: RSV infected A549 cells (virus-encoded polymerase, detergent preparation)
Experiment: RSV polymerase assay (inhibition of RNA synthesis by RSV polymerase)
Assay type: biochemical
Conditions: nucleoside triphosphate analogs; RSV polymerase from RSV infected A549 cells; 33P-CTP incorporation into nascent RSV RNA
Method: The RSV polymerase assay measures the ability of the nucleoside triphosphates derived from compounds of formula I to inhibit the RSV polymerase. RSV polymerase was obtained from RSV infected A549 cells. RSV polymerase activity was measured using RSV polymerase preparation (stored in 10 mM Tris-acetate (pH 8), 10 mM K-acetate, 1.5 mM MgCl2, 0.5% deoxycholate and 1% Tween-40) in the a buffer containing 50 mM Tris-HCL, pH8, 100 mM KCl, 5 mM MgCl2, 1 mM DTT and 0.2 mg/ml BSA in the presence of 50 μM ATP, GTP and UTP, 1 μM CTP and 3.5 μCi ^33P-labeled CTP (10 mCi/mL). The amount of nucleotides incorporated into nascent RSV RNA was determined TCA precipitation and scintillation counting.
The polymerase and replication activities of RSV were measured in the presence and absence of different concentrations of compounds to determine the degree of inhibition by the compounds.
The compound concentration at which the enzyme-catalyzed rate is reduced by 50% (IC50) was calculated by fitting the data to equation (1),
[formula] where “Y” corresponds to the relative enzyme activity (in %), “% Min” is the residual relative activity at saturating compound concentration, “% Max” is the relative maximum enzymatic activity, X corresponds to the compound concentration, and “S” is the Hill coefficient (or slope).

T1 sequence (P28887 whole entry): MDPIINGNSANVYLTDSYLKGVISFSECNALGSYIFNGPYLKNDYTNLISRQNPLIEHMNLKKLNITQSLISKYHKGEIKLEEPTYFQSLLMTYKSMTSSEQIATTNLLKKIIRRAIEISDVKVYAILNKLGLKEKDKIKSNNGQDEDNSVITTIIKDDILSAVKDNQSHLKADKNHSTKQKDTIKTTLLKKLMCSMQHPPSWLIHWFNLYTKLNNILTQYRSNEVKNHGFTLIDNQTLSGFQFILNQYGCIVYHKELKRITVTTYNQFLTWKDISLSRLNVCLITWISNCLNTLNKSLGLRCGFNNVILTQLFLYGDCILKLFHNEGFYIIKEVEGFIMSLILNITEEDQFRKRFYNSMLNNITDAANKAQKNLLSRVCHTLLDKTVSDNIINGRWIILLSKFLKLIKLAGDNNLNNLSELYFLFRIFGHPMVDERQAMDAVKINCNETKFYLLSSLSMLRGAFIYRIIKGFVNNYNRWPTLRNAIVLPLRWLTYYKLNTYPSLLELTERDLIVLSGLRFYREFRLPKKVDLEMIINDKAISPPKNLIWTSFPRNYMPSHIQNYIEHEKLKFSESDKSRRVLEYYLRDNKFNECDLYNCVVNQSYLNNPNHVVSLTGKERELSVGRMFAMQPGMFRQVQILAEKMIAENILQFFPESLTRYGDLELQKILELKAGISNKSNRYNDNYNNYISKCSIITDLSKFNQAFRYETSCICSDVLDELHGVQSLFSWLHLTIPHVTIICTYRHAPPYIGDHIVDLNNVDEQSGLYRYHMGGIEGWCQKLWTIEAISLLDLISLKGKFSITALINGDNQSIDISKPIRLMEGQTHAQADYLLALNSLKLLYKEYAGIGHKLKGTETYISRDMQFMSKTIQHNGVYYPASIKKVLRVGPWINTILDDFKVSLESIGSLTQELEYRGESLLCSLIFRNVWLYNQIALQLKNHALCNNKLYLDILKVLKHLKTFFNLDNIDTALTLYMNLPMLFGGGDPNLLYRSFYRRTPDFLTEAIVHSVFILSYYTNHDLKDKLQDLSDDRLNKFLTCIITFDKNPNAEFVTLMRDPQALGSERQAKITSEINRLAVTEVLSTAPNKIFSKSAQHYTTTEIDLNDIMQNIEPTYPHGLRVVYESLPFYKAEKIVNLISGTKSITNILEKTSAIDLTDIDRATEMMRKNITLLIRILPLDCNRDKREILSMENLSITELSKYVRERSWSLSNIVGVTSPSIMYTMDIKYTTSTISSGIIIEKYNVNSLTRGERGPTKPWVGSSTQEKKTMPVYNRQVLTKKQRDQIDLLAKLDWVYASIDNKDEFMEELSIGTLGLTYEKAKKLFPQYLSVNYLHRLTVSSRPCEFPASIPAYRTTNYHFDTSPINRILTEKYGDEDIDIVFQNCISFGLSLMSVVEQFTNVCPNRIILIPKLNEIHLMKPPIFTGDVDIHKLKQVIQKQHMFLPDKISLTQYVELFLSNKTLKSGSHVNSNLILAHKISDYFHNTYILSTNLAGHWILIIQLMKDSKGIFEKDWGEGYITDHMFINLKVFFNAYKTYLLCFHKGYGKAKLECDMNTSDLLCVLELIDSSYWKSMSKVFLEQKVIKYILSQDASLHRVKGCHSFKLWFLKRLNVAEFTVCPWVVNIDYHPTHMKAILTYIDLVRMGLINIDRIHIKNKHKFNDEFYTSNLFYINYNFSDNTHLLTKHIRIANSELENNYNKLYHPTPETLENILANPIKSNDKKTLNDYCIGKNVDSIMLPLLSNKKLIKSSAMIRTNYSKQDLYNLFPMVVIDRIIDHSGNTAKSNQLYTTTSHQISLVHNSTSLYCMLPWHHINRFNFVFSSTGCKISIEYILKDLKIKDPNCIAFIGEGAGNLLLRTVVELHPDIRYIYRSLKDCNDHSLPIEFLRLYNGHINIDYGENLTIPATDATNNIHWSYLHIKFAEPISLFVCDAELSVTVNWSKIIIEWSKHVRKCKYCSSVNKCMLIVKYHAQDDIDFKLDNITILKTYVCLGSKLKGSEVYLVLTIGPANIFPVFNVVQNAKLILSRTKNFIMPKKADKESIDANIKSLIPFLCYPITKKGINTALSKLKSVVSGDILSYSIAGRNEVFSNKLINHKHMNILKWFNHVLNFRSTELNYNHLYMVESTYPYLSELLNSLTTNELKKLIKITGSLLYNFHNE
T1 sequence (P03421 whole entry, further chain): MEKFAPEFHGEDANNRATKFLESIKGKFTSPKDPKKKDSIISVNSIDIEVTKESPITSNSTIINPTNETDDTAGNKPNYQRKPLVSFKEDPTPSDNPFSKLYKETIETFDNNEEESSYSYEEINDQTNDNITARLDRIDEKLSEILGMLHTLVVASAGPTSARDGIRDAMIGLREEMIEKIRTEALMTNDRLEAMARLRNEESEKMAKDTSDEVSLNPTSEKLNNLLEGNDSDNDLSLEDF

**Q.** With `C=C[C@]1(COP(=O)(O)OP(=O)(O)OP(=O)(O)O)O[C@@H](n2ccc(=O)[nH]c2=O)[C@H](O)[C@@H]1O` [II-1] as the molecule, how does the IC50 read?
**A.** < 1 µM

**Q.** With `C=C[C@]1(COP(=O)(O)OP(=O)(O)OP(=O)(O)O)O[C@@H](n2ccc(N)nc2=O)[C@H](O)[C@@H]1O` [II-2] as the molecule, how does the IC50 read?
**A.** < 1 µM

**Q.** Which IC50 does the source give for `C=C[C@]1(COP(=O)(O)OP(=O)(O)OP(=O)(O)O)O[C@@H](n2cnc3c(N)ncnc32)[C@H](O)[C@@H]1O` [II-3] here?
**A.** < 1 µM
